According to the NIST ThermoML archive (doi:10.1007/s10765-015-1981-5):

Experiment: xn = mol fraction of the nth substance listed
Conditions: Gas, Loschmidt cell combine with holographic interferometry

[He] [helium] + CCC
binary diffusion coefficient [m2/s], x2 = 0.5
Conditions | 293.15 K | 313.15 K | 333.15 K
100 kPa | 3.9e-05 | 4.36e-05 | –
200 kPa | 1.95e-05 | 2.18e-05 | 2.4e-05

[He] [helium] + N
binary diffusion coefficient [m2/s], x1 = 0.5
Conditions | 293.15 K | 313.15 K | 333.15 K | 353.15 K
100 kPa | 7.36e-05 | – | – | –
200 kPa | 3.7e-05 | 4.1e-05 | – | –
500 kPa | 1.46e-05 | 1.65e-05 | – | –
800 kPa | 8.96e-06 | 1.02e-05 | 1.13e-05 | 1.26e-05

[Kr] [krypton] + [He]
binary diffusion coefficient [m2/s], x1 = 0.5
Conditions | 293.15 K | 313.15 K | 333.15 K | 353.15 K
100 kPa | 6.19e-05 | 7.04e-05 | – | –
200 kPa | 3.12e-05 | 3.48e-05 | 3.84e-05 | 4.25e-05
500 kPa | 1.25e-05 | 1.34e-05 | 1.55e-05 | 1.71e-05
1000 kPa | 6.18e-06 | 6.94e-06 | 7.7e-06 | 8.54e-06

[N-]=[N+]=O [nitrous oxide] + N#N
binary diffusion coefficient [m2/s], x2 = 0.5
Conditions | 293.15 K | 313.15 K | 333.15 K | 353.15 K
100 kPa | 1.53e-05 | 1.76e-05 | – | –
200 kPa | 7.9e-06 | 8.98e-06 | – | –
500 kPa | 3.14e-06 | 3.55e-06 | 4.28e-06 | –
1000 kPa | 1.56e-06 | 1.77e-06 | 1.98e-06 | 2.24e-06

[Xe] [xenon] + [Ar]
binary diffusion coefficient [m2/s], x2 = 0.5
Conditions | 100 kPa | 200 kPa | 500 kPa | 1000 kPa
293.15 K | 3.12e-05 | 1.56e-05 | 6.29e-06 | 3.12e-06
313.15 K | 3.5e-05 | 1.75e-05 | 7.02e-06 | 3.48e-06
333.15 K | 3.88e-05 | 1.94e-05 | 7.76e-06 | 3.88e-06
